# Measured values as given in patent US20120122860A1, “SOLID FORMS OF SULFONAMIDES AND AMINO ACIDS” (Plexxikon, Inc., priority 2009, published 2012).
# Assays:
# Fms = Fms (Homo sapiens, UniProt P07333); test: Kinase activity assay, Fms
# Kit = Kit (Homo sapiens, UniProt P10721); test: Kinase activity assay, Kit
# MAP4K4 = MAP4K4 (Homo sapiens, UniProt O95819); test: Kinase activity assay, MAP4K4
# C-Raf = C-Raf (Homo sapiens, UniProt P04049); test: Kinase activity assay, C-Raf
# B-Raf V600E = B-Raf V600E (Homo sapiens, UniProt P15056, V600E); test: Kinase activity assay, B-Raf V600E; type: biochemical; conditions: read-out: activity toward kinase B-Raf V600E, IC50
# Sequence of B-Raf V600E (P15056 whole entry V600E): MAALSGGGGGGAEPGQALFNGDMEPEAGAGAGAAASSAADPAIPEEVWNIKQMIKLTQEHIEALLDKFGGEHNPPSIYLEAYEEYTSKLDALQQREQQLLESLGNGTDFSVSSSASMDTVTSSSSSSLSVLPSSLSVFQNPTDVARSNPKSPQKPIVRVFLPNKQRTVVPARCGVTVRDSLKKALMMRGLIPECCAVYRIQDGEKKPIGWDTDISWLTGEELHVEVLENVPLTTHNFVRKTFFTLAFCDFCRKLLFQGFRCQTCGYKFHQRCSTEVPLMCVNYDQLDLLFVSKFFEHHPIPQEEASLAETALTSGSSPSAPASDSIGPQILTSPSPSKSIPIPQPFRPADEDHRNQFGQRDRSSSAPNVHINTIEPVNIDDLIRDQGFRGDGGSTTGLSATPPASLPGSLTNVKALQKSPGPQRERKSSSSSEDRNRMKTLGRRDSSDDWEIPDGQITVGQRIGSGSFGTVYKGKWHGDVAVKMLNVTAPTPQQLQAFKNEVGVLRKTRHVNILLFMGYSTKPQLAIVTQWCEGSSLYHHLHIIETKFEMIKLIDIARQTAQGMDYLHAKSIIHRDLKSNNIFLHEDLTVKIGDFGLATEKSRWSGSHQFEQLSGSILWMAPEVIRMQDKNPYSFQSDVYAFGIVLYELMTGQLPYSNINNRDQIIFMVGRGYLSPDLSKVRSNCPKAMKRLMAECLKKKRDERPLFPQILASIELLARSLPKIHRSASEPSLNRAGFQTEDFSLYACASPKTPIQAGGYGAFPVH
# B-Raf = B-Raf (Homo sapiens, UniProt P15056); test: Kinase activity assay, B-Raf; type: biochemical; conditions: read-out: activity toward kinase B-Raf, IC50
# Sequence of B-Raf (P15056 whole entry): as the sequence (P15056 whole entry V600E) above, with E600V counted along it
# Kdr = Kdr (Homo sapiens, UniProt P35968); test: Kinase activity assay, Kdr
# Sequence of Kdr (P35968 20-1356): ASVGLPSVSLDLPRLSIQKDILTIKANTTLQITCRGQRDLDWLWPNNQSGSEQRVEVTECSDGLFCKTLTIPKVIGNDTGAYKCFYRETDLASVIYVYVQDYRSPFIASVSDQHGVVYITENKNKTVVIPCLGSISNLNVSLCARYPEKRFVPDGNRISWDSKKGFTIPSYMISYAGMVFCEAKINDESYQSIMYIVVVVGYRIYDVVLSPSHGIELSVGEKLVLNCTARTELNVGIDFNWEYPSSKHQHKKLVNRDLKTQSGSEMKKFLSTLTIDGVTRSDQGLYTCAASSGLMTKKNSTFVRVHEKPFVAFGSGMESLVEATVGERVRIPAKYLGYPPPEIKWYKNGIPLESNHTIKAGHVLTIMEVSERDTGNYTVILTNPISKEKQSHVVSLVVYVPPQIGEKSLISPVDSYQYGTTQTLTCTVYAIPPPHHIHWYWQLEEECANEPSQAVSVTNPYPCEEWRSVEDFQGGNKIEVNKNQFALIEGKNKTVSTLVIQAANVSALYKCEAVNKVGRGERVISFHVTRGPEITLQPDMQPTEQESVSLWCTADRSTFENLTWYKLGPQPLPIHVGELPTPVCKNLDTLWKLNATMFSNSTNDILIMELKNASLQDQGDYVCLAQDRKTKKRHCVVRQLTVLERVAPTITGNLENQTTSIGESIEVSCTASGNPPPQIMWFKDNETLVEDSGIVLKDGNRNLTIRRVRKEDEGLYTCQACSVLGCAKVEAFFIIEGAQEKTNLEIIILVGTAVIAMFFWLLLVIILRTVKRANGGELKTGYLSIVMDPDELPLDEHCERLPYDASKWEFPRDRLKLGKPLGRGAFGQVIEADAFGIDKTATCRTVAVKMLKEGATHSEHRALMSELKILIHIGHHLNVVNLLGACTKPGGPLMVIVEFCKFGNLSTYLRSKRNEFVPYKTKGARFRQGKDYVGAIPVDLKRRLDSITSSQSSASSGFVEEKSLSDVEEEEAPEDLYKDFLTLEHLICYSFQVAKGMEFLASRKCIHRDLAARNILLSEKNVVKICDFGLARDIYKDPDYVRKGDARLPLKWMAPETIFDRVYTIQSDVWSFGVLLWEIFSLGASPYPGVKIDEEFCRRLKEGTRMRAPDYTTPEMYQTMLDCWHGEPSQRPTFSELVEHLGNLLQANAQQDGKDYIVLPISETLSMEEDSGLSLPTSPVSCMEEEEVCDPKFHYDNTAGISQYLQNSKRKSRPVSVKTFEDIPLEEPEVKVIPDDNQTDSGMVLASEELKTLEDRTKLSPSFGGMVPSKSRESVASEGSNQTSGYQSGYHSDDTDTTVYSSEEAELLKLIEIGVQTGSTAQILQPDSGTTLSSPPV
# Src = Src (Homo sapiens, UniProt P12931); test: Kinase activity assay, Src
# Sequence of MAP4K4 (O95819 whole entry): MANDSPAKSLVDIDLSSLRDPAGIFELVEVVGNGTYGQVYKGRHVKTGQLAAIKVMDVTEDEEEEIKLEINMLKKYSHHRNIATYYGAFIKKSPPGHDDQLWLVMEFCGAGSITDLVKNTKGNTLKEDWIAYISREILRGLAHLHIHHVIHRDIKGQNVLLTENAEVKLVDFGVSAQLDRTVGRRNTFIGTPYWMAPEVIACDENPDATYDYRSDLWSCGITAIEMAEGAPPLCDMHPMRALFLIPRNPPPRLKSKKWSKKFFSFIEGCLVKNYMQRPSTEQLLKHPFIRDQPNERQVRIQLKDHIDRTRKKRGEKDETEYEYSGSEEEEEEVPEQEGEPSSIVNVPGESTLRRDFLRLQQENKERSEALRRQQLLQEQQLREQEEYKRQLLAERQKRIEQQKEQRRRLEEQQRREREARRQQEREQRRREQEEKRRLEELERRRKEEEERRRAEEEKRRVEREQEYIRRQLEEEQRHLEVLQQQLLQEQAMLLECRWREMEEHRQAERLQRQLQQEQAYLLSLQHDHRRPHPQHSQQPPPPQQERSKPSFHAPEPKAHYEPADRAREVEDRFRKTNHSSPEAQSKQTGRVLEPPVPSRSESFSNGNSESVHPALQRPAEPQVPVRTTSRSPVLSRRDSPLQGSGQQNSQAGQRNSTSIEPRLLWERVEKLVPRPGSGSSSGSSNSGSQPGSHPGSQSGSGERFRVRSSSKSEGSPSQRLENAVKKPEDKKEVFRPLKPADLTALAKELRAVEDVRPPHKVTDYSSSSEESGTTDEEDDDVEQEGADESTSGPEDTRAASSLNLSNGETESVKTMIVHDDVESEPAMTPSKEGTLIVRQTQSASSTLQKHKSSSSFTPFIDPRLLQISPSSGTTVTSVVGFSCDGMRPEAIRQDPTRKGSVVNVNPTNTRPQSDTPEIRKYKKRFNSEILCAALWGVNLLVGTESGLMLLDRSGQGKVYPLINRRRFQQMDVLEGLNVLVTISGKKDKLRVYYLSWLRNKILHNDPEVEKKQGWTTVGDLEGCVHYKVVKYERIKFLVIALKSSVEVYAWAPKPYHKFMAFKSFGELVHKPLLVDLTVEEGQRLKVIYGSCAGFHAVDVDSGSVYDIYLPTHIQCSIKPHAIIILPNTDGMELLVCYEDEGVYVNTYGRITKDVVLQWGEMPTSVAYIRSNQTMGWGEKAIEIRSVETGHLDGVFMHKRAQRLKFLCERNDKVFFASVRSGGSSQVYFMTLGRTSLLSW
# Sequence of Fms (P07333 20-972): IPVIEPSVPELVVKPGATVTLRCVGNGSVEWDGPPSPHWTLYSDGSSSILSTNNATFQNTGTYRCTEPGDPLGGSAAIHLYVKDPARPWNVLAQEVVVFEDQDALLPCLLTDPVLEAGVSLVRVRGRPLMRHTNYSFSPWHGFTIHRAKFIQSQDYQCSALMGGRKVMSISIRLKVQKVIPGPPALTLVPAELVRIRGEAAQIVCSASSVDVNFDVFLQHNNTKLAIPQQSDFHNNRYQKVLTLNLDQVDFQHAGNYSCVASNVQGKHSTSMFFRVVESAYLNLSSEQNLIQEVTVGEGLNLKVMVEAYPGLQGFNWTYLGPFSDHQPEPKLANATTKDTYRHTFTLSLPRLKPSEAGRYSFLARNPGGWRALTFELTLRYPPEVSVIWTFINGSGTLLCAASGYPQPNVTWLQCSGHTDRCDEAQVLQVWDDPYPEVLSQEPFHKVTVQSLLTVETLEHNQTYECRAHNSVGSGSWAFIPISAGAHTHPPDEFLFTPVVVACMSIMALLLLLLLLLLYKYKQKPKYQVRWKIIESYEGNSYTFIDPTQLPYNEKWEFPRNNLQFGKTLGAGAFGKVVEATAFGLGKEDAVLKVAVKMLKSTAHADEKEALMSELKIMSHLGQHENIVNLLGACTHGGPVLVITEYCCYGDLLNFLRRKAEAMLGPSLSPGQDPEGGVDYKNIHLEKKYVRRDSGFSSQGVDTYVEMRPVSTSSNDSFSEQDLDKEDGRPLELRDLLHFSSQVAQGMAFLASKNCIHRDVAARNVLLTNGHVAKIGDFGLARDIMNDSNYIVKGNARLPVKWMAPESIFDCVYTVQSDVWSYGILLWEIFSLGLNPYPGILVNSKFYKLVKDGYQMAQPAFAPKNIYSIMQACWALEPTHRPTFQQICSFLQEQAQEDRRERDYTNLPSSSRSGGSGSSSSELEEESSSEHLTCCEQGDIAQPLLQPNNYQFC
# Sequence of C-Raf (P04049 whole entry): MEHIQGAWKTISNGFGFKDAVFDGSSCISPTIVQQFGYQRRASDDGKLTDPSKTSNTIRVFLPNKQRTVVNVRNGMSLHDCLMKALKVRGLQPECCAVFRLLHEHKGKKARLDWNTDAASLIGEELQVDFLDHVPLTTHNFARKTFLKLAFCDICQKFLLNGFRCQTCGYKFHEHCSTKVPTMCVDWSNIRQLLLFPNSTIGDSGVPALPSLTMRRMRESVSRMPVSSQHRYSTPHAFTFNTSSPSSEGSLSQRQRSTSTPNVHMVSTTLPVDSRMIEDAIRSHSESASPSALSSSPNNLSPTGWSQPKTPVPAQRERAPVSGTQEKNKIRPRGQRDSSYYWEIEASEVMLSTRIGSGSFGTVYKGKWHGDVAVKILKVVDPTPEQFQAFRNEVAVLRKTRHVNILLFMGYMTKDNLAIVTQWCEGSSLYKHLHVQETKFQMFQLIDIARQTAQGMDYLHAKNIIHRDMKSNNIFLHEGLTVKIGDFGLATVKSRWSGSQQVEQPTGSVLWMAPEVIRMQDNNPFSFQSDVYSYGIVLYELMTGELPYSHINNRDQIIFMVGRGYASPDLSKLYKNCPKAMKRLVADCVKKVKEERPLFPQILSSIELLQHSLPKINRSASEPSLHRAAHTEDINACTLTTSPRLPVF
SMILES,IC50 (Fms),IC50 (Kit),IC50 (MAP4K4),IC50 (C-Raf),IC50 (B-Raf V600E),IC50 (B-Raf),IC50 (Kdr),IC50 (Src)
"CCCS(=O)(=O)Nc1ccc(F)c(C(=O)c2c[nH]c3ncc(-c4cnc(C)nc4)cc23)c1F [P-2211, Propane-1-sulfonic acid {2,4-difluoro-3-[5-(2-methyl-pyrimidin-5-yl)-1H-pyrrolo[2,3-b]pyridine-3-carbonyl]-phenyl}-amide]",≤ 10 µM,–,≤ 10 µM,≤ 10 µM,≤ 10 µM,≤ 10 µM,≤ 10 µM,≤ 10 µM
"CCCS(=O)(=O)Nc1ccc(F)c(C(=O)c2c[nH]c3ncc(-c4ccc(S(=O)(=O)NCCO)cc4)cc23)c1F [P-2221, 4-{3-[2,6-Difluoro-3-(propane-1-sulfonylamino)-benzoyl]-1H-pyrrolo[2,3-b]pyridin-5-yl}-N-(2-hydroxy-ethyl)-benzenesulfonamide]",≤ 10 µM,≤ 10 µM,≤ 10 µM,–,–,–,≤ 10 µM,–
"CCCS(=O)(=O)Nc1ccc(F)c(C(=O)c2c[nH]c3ncc(-c4ccc(S(=O)(=O)C(C)C)cc4)cc23)c1F [P-2223, Propane-1-sulfonic acid (2,4-difluoro-3-{5-[4-(propane-2-sulfonyl)-phenyl]-1H-pyrrolo[2,3-b]pyridine-3-carbonyl}-phenyl)-amide]",–,≤ 10 µM,≤ 10 µM,≤ 10 µM,≤ 10 µM,≤ 10 µM,≤ 10 µM,≤ 10 µM
"CCCS(=O)(=O)Nc1ccc(F)c(C(=O)c2c[nH]c3ncc(-c4nn[nH]n4)cc23)c1F [P-2242, Propane-1-sulfonic acid {2,4-difluoro-3-[5-(2H-tetrazol-5-yl)-1H-pyrrolo[2,3-b]pyridine-3-carbonyl]-phenyl}-amide]",≤ 10 µM,≤ 10 µM,≤ 10 µM,–,–,–,≤ 10 µM,≤ 10 µM
"CCCCS(=O)(=O)Nc1ccc(F)c(C(=O)c2c[nH]c3ncc(-c4ccc(Cl)cc4)cc23)c1F [P-2300, Butane-1-sulfonic acid {3-[5-(4-chloro-phenyl)-1H-pyrrolo[2,3-b]pyridine-3-carbonyl]-2,4-difluoro-phenyl}-amide]",≤ 10 µM,≤ 10 µM,≤ 10 µM,–,–,–,≤ 10 µM,≤ 10 µM
"Cc1cnc2[nH]cc(C(=O)c3c(F)ccc(NS(=O)(=O)C4CCCCC4)c3F)c2c1 [P-2360, Cyclohexanesulfonic acid [2,4-difluoro-3-(5-methyl-1H-pyrrolo[2,3-b]pyridine-3-carbonyl)-phenyl]-amide]",–,≤ 10 µM,≤ 10 µM,≤ 10 µM,≤ 10 µM,≤ 10 µM,≤ 10 µM,≤ 10 µM
"O=C(c1cccc(NS(=O)(=O)C2CCCCC2)c1)c1c[nH]c2ncc(Cl)cc12 [P-2452, Cyclohexanesulfonic acid [3-(5-chloro-1H-pyrrolo[2,3-b]pyridine-3-carbonyl)-phenyl]-amide]",≤ 10 µM,≤ 10 µM,≤ 10 µM,–,≤ 10 µM,–,≤ 10 µM,–
"O=C(c1cccc(NS(=O)(=O)C2CCCC2)c1)c1c[nH]c2ncc(Cl)cc12 [P-2453, Cyclopentanesulfonic acid [3-(5-chloro-1H-pyrrolo[2,3-b]pyridine-3-carbonyl)-phenyl]-amide]",≤ 10 µM,≤ 10 µM,≤ 10 µM,–,≤ 10 µM,–,≤ 10 µM,–
"Cc1cnc2[nH]cc(C(=O)c3cccc(NS(=O)(=O)C4CCCCC4)c3)c2c1 [P-2458, Cyclohexanesulfonic acid [3-(5-methyl-1H-pyrrolo[2,3-b]pyridine-3-carbonyl)-phenyl]-amide]",≤ 10 µM,≤ 10 µM,≤ 10 µM,–,–,–,≤ 10 µM,–
"O=C(O)CCc1cccc(-c2cnc3[nH]cc(C(=O)c4cccc(NS(=O)(=O)C5CCCCC5)c4)c3c2)c1 [P-2465, 3-{3-[3-(3-Cyclohexanesulfonylamino-benzoyl)-1H-pyrrolo[2,3-b]pyridin-5-yl]-phenyl}-propionic acid]",≤ 10 µM,≤ 10 µM,≤ 10 µM,–,≤ 10 µM,≤ 10 µM,≤ 10 µM,≤ 10 µM

# Next, values leading:
IC50 (Fms),IC50 (Kit),IC50 (MAP4K4),IC50 (C-Raf),IC50 (B-Raf V600E),IC50 (B-Raf),IC50 (Kdr),IC50 (Src),SMILES
≤ 10 µM,≤ 10 µM,≤ 10 µM,≤ 10 µM,≤ 10 µM,≤ 10 µM,≤ 10 µM,–,"O=C(CCCCC1SCC2NC(=O)NC21)NCCCCCNC(=O)CCc1cnc2[nH]cc(C(=O)c3c(F)ccc(NS(=O)(=O)c4ccc(C(F)(F)F)cc4)c3F)c2c1 (centres unmarked) [P-2008, 5-(2-Oxo-hexahydro-thieno[3,4-d]imidazol-6-yl)-pentanoic acid [5-(3-{3-[2,6-difluoro-3-(4-trifluoromethyl-benzenesulfonylamino)-benzoyl]-1H-pyrrolo[2,3-b]pyridin-5-yl}-propionylamino)-pentyl]-amide]"
–,≤ 10 µM,≤ 10 µM,≤ 10 µM,≤ 10 µM,≤ 10 µM,≤ 10 µM,≤ 10 µM,"O=C(c1c(F)ccc(NS(=O)(=O)c2c(F)cccc2F)c1F)c1c[nH]c2nccc(Cl)c12 [P-2033, N-[3-(4-Chloro-1H-pyrrolo[2,3-b]pyridine-3-carbonyl)-2,4-difluoro-phenyl]-2,6-difluoro-benzenesulfonamide]"
–,≤ 10 µM,≤ 10 µM,≤ 10 µM,≤ 10 µM,≤ 10 µM,≤ 10 µM,≤ 10 µM,"O=C(c1c(F)ccc(NS(=O)(=O)c2ccc(F)cc2F)c1F)c1c[nH]c2nccc(Cl)c12 [P-2034, N-[3-(4-Chloro-1H-pyrrolo[2,3-b]pyridine-3-carbonyl)-2,4-difluoro-phenyl]-2,4-difluoro-benzenesulfonamide]"
≤ 10 µM,–,≤ 10 µM,–,–,–,≤ 10 µM,≤ 10 µM,"Cc1cnc2[nH]cc(C(=O)c3cc(NS(=O)(=O)c4cccnc4)ccc3F)c2c1 [P-2137, Pyridine-3-sulfonic acid [4-fluoro-3-(5-methyl-1H-pyrrolo[2,3-b]pyridine-3-carbonyl)-phenyl]-amide]"
≤ 10 µM,≤ 10 µM,≤ 10 µM,–,–,–,≤ 10 µM,–,"Cc1cnc2[nH]cc(C(=O)c3cccc(NS(=O)(=O)c4cccnc4)c3)c2c1 [P-2141, Pyridine-3-sulfonic acid [3-(5-methyl-1H-pyrrolo[2,3-b]pyridine-3-carbonyl)-phenyl]-amide]"
≤ 10 µM,–,≤ 10 µM,≤ 10 µM,–,–,≤ 10 µM,–,"O=C(c1cccc(NS(=O)(=O)c2cccnc2)c1)c1c[nH]c2ncc(F)cc12 [P-2143, Pyridine-3-sulfonic acid [3-(5-fluoro-1H-pyrrolo[2,3-b]pyridine-3-carbonyl)-phenyl]-amide]"
≤ 10 µM,≤ 10 µM,≤ 10 µM,–,–,≤ 10 µM,≤ 10 µM,≤ 10 µM,"O=C(O)CCc1cccc(-c2cnc3[nH]cc(C(=O)c4cccc(NS(=O)(=O)c5cccnc5)c4)c3c2)c1 [P-2148, 3-(3-{3-[3-(Pyridine-3-sulfonylamino)-benzoyl]-1H-pyrrolo[2,3-b]pyridin-5-yl}-phenyl)-propionic acid]"
